Assay: Surface activity: critical micelle concentration and surface tension by force tensiometer
Type: physicochemical
Conditions: for CMC / Surface tension (at CMC): aqueous solution, room temperature; for Cross-sectional area: area occupied by the surfactant molecule at the surface; for Cross-sectional area / Surface excess: from Gibbs adsorption equation
Method: Critical micelle concentrations (CMC) and surface tensions (ST) were measured for aqueous solutions of the surfactants of the present invention at room temperature using a force tensiometer (Sigma 700/701). Plots of surface tension against surfactant concentration were drawn allowing to determine CMC and surface tension at the CMC. Using the Gibbs adsorption equation it is possible to determine the surface excess as well as the area occupied by the surfactant molecule at the surface (as a reference see for example “Industrial Utilization of Surfactants: principles and practice”, M. J. Rosen and M. Dahanayake, 2000, ISBN 1893997111) which are important parameters to characterize a surfactant.

Compound | CMC [mM] | Surface tension (at CMC) [mN/m] | Cross-sectional area [nm^2] | Surface excess [mmol/m^2]
CCCCCCCCCCCCCCC(C(O)c1ccccc1)S(=O)(=O)[O-].[Na+] (centres unmarked) [PAS-C16] | 0.22 | 36 | 0.53 | 0.0031
CCCCCCCCCCCCCCC(C(=O)c1ccccc1)S(=O)(=O)[O-].[Na+] (centres unmarked) [PAKS-C16] | 0.23 | 44 | 0.64 | 0.0026
